Reference: US20230056360A1, “BLOOD-BRAIN-BARRIER SYSTEMS” (priority 2020, published 2023)
Entries after “also recorded” stand apart in the source; their conditions may differ.

Tested on: iBMECs
Test: blood-to-brain permeability of fluorescent molecules across iBMEC monolayers on transwells, monoculture or brain region-specific NVUs
Conditions: iBMECs alone or co-cultured over primary rat neural cultures (cortex, striatum, hippocampus, cerebellum, spinal cord); one-way ANOVA, Tukey; result in words
Protocol: In order to obtain region-specific primary neural cultures, E18 rat embryos were extracted from a pregnant female. Embryos were dissected and several regions of the CNS were separated including cortex, striatum, hippocampus, cerebellum and spinal cord. The regions were enzymatically dissociated into single cells before seeded pre-coated MEA plates and petri dishes, in which they were cultured in Neurobasal medium (Sigma) for two weeks. In order to validate the various primary cell cultures, the cells were stained for the neuronal marker βIII-tubulin and the glial marker GFAP (FIG. 2).
iPSCs were differentiated into iBMECs as previously described. On Day 8 of differentiation, cells were enzymatically dissociated into single cell suspensions and seeded on precoated transwell inserts. 24 hours post seeding, iBMEC inserts were placed on top of primary neural cultures derived from the different CNS regions (FIG. 3) where they were cultured for three additional days.
Fluorescence was measured using a plate reader and calculated into concentrations using a calibration curve with known concentrations. Next, the inventors plotted the chart and extracted the slope for each transwell. Slopes from empty transwells were subtracted from the obtained value and the results were used to calculate the permeability, expressed as 10-5 cm/min.

| SMILES | differences in permeability between iBMEC monoculture and NVUs of different brain regions |
| --- | --- |
| O=[N+]([O-])c1ccc(N[C@H]2C(O)O[C@H](CO)[C@@H](O)[C@@H]2O)c2nonc12 (stereo partly drawn) [2-NDBG, 2-[N-(7-nitrobenz-2-oxa-1,3-diazol-4-yl)amino]-2-deoxy-D-glucose] | not different between the NVUs |
| O=C([O-])c1ccccc1-c1c2ccc(=O)cc-2oc2cc([O-])ccc12.[Na+].[Na+] [sodium fluorescein] | significantly more permeable in the monoculture compared to the NVUs of the cortex, cerebellum, striatum and hippocampus; also recorded: significance differences in permeability were also observed between spinal cord and other NVUs |
